Patent publication US11149037B2, “Pyrazole MAGL inhibitors” (H. Lundbeck A/S, priority 2017, dated 2021)

Legend:
MAGL [1] = biological target: MAGL (Homo sapiens (Human), UniProt Q99685); test: In vitro competitive activity-based protein profiling, human proteomes (prefrontal cortex or PC3 cell membrane fractions); format: biochemical; details: human proteome; for inhibition at 1 µM: read-out: MAGL % inh. 1 μM (human)
Summary of the method: (§1)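 Activity of MAGL and FAAH was quantified from fluorescent gel band intensities. Beforehand, inhibitors at several concentrations competed against subsequent probe labelling (FP-Rh, JW912 or HT-01) in species-matched proteomes, each step 30 min at 37° C.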

FAAH [2] = biological target: FAAH (Homo sapiens (Human), UniProt O00519); test: as above; format: biochemical; details: human proteome; for inhibition at 1 µM: read-out: FAAH % inh. 1 μM (human)
Sequence of FAAH (Homo sapiens (Human), UniProt O00519) (O00519 whole entry): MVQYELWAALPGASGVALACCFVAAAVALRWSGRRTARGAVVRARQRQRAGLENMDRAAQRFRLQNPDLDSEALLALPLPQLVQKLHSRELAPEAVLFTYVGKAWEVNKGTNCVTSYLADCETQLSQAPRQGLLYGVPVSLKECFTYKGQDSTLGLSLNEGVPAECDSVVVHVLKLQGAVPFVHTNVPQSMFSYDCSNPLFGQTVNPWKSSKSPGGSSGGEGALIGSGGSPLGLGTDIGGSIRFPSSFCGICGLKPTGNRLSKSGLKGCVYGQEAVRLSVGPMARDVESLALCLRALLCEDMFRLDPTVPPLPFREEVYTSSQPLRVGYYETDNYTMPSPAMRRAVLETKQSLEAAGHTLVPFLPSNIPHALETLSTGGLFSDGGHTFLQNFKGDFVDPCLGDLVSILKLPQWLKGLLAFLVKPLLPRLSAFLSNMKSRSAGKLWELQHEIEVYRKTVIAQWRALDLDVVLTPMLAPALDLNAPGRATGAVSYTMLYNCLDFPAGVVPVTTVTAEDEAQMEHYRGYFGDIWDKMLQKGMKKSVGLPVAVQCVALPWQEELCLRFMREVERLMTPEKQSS
Summary of the method: as §1

FAAH [3] = biological target: T1, FAAH (Mus musculus (Mouse), UniProt O08914); test: In vitro competitive activity-based protein profiling, mouse proteomes (brain membrane fraction or cell lysates); format: biochemical; details: mouse proteome, read-out: FAAH % inh. 1 μM (mouse)
T1 sequence (O08914 whole entry): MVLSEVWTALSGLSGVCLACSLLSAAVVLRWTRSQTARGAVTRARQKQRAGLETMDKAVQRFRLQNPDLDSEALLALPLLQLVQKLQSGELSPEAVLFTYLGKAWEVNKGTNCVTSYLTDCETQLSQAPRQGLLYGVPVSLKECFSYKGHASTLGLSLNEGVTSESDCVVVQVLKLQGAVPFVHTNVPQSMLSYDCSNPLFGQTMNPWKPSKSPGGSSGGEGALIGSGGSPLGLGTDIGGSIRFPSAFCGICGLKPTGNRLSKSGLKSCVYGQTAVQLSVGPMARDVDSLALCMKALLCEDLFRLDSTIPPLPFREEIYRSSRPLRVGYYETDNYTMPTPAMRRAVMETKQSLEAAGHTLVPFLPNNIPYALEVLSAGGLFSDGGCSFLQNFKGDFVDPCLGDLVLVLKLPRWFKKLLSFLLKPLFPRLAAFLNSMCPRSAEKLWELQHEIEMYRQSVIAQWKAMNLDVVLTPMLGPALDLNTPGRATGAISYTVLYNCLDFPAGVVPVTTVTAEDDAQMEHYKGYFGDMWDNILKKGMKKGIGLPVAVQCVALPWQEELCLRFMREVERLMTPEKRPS
Summary of the method: as §1

MAGL [4] = biological target: T2, MAGL (Mus musculus (Mouse), UniProt O35678); test: as above; format: biochemical; details: mouse proteome, read-out: MAGL % inh. 1 μM (mouse)
T2 sequence (O35678 whole entry): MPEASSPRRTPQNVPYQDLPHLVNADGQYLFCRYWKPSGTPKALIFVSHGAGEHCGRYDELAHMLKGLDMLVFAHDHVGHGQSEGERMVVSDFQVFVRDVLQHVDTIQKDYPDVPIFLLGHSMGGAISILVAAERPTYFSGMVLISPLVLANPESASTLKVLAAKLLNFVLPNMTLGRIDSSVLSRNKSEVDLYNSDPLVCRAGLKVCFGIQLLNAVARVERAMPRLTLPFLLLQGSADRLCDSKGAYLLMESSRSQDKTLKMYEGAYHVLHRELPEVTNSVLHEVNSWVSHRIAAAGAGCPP
Summary of the method: as §1

FAAH [5] = biological target: T1, FAAH; test: Mouse brain proteomes from inhibitor treated mice (oral gavage, sacrificed 4 h after administration); format: in vivo; details: 5 mg/kg oral gavage
Method: (§2) Preparation of Mouse Brain Proteomes from Inhibitor Treated Mice.
(§3) Inhibitors were administered to wild-type C57B1/6J by oral gavage in a vehicle of polyethylene glycol. Each animal was sacrificed 4 h following administration and brain proteomes were prepared and analyzed according to previously established methods (See Niphakis, M. J., et al. (2011) ACS Chem. Neurosci. and Long, J. Z., et al. Nat. Chem. Biol. 5:37-44).

MAGL [6] = biological target: T2, MAGL; test: as above; format: in vivo; details: 5 mg/kg oral gavage
Method: as §2, §3

Sequence of MAGL (Homo sapiens (Human), UniProt Q99685) (Q99685 whole entry): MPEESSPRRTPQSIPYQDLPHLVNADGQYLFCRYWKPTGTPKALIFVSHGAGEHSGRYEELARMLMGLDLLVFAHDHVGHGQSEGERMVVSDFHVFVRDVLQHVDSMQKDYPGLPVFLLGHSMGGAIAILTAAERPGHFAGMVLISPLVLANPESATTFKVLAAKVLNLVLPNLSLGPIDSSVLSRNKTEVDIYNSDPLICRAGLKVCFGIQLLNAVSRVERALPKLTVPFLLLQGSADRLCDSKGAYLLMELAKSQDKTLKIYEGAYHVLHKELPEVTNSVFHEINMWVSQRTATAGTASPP

Compound | inhibition at 1 µM (MAGL [1]) [%] | inhibition at 1 µM (FAAH [2]) [%] | inhibition at 1 µM (FAAH [3]) [%] | inhibition at 1 µM (MAGL [4]) [%] | FAAH % inh. 5 mg/kg (mouse) (FAAH [5]) | MAGL % inh. 5 mg/kg (mouse) (MAGL [6]) | IC50 (MAGL [1]) [µM] | IC50 (FAAH [2]) [µM]
C[C@@H]1CN(C(=O)n2ccc(NS(C)(=O)=O)n2)CCN1Cc1ccc(Cl)c(N2CCC(F)CC2)c1 [Example 138, (R)-N-(1-(4-(4-Chloro-3-(4-fluoropiperidin-1-yl)benzyl)-3-methylpiperazine-1-carbonyl)-1H-pyrazol-3-yl)methanesulfonamide] | > 75 | 0 to 25 | 0 to 25 | > 75 | D (% inhibition is greater than or equal to 0% and less than 25%) | A (% inhibition is greater than or equal to 75%) |  | 
C[C@H](c1ccc(Cl)c(N2CCC(F)CC2)c1)N1CCN(C(=O)n2ccc(NS(C)(=O)=O)n2)CC1 [Example 139, (R)-N-(1-(4-(1-(4-Chloro-3-(4-fluoropiperidin-1-yl)phenyl)ethyl)piperazine-1-carbonyl)-1H-pyrazol-3-yl)methanesulfonamide] | > 75 | 0 to 25 | 0 to 25 | > 75 | D (% inhibition is greater than or equal to 0% and less than 25%) | D (% inhibition is greater than or equal to 0% and less than 25%) | < 0.1 | 1 to 10
CC1CN(C(=O)n2ccc(NS(C)(=O)=O)n2)CCN1Cc1ccc(C(F)(F)F)c(N2CCC(F)CC2)c1 (stereo not drawn) [Example 141, N-(1-(4-(3-(4-Fluoropiperidin-1-yl)-4-(trifluoromethyl)benzyl)-3-methylpiperazine-1-carbonyl)-1H-pyrazol-3-yl)methanesulfonamide] | > 75 | 0 to 25 | 0 to 25 | > 75 | D (% inhibition is greater than or equal to 0% and less than 25%) | A (% inhibition is greater than or equal to 75%) |  | 
C[C@H]1CN(C(=O)n2ccc(NS(C)(=O)=O)n2)CCN1Cc1ccc(Cl)c(N2CC3COCC3C2)c1 (stereo partly drawn) [Example 143, N-(1-((3S)-4-(4-Chloro-3-(tetrahydro-1H-furo[3,4-c]pyrrol-5(3H)-yl)benzyl)-3-methylpiperazine-1-carbonyl)-1H-pyrazol-3-yl)methanesulfonamide] | > 75 | 0 to 25 | 0 to 25 | > 75 | D (% inhibition is greater than or equal to 0% and less than 25%) | D (% inhibition is greater than or equal to 0% and less than 25%) |  | 
C[C@H]1CN(C(=O)n2ccc(NS(C)(=O)=O)n2)CCN1Cc1ccc(Cl)c(N2CCC(F)CC2)c1 [Example 148, (S)-N-(1-(4-(4-Chloro-3-(4-fluoropiperidin-1-yl)benzyl)-3-methylpiperazine-1-carbonyl)-1H-pyrazol-3-yl)methanesulfonamide] | > 75 | 0 to 25 | 0 to 25 | > 75 | D (% inhibition is greater than or equal to 0% and less than 25%) | A (% inhibition is greater than or equal to 75%) |  | 
CC(=O)Nc1ccn(C(=O)N2CC3CN(Cc4ccc(Cl)c(C(C)(C)O)c4)CC3C2)n1 (stereo not drawn) [Example 150, N-(1-(5-(4-Chloro-3-(2-hydroxypropan-2-yl)benzyl)octahydropyrrolo[3,4-c]pyrrole-2-carbonyl)-1H-pyrazol-3-yl)acetamide] | > 75 | 25 to 50 | 0 to 25 | > 75 | D (% inhibition is greater than or equal to 0% and less than 25%) | D (% inhibition is greater than or equal to 0% and less than 25%) | < 0.1 | 1 to 10
CC(=O)Nc1ccn(C(=O)N2CCC3(CCN(C(=O)c4cc5ccc(C(F)(F)F)cc5s4)C3)CC2)n1 [Example 154, N-(1-(2-(6-(Trifluoromethyl)benzo[b]thiophene-2-carbonyl)-2,8-diazaspiro[4.5]decane-8-carbonyl)-1H-pyrazol-3-yl)acetamide] | > 75 | 25 to 50 | > 75 | > 75 | C (% inhibition is greater than or equal to 25% and less than 50%) | B (% inhibition is greater than or equal to 50% and less than 75%) | < 0.1 | 1 to 10
C[C@@H]1CCCN1c1cc(CN2CCN(C(=O)n3ccc(NS(C)(=O)=O)n3)CC2)ccc1C(F)(F)F [Example 156, (R)-N-(1-(4-(3-(2-Methylpyrrolidin-1-yl)-4-(trifluoromethyl)benzyl)piperazine-1-carbonyl)-1H-pyrazol-3-yl)methanesulfonamide] | > 75 | 0 to 25 | 0 to 25 | > 75 | D (% inhibition is greater than or equal to 0% and less than 25%) | A (% inhibition is greater than or equal to 75%) |  | 
CS(=O)(=O)Nc1ccn(C(=O)N2CCN(Cc3ccc(Cl)c(N4C[C@H]5C[C@@H]4CO5)c3)CC2)n1 [Example 157, N-(1-(4-(3-((1R,4R)-2-Oxa-5-azabicyclo[2.2.1]heptan-5-yl)-4-chlorobenzyl)piperazine-1-carbonyl)-1H-pyrazol-3-yl)methanesulfonamide] | > 75 | 0 to 25 | 0 to 25 | > 75 | D (% inhibition is greater than or equal to 0% and less than 25%) | D (% inhibition is greater than or equal to 0% and less than 25%) |  | 
CS(=O)(=O)Nc1ccn(C(=O)N2CCN(Cc3ccc(Cl)c(N4CCO[C@@H]5CCC[C@@H]54)c3)CC2)n1 [Example 158, N-(1-(4-(4-Chloro-3-((4aS,7aR)-hexahydrocyclopenta[b][1,4]oxazin-4(4aH)-yl)benzyl)piperazine-1-carbonyl)-1H-pyrazol-3-yl)methanesulfonamide] | > 75 | 0 to 25 | 0 to 25 | > 75 | D (% inhibition is greater than or equal to 0% and less than 25%) | D (% inhibition is greater than or equal to 0% and less than 25%) |  | 
CS(=O)(=O)Nc1ccn(C(=O)N2CCN(Cc3ccc(Cl)c(N4CCC5(CCOCC5)C4)c3)CC2)n1 [Example 159, N-(1-(4-(4-Chloro-3-(8-oxa-2-azaspiro[4.5]decan-2-yl)benzyl)piperazine-1-carbonyl)-1H-pyrazol-3-yl)methanesulfonamide] | > 75 | 0 to 25 | 0 to 25 | > 75 | D (% inhibition is greater than or equal to 0% and less than 25%) | D (% inhibition is greater than or equal to 0% and less than 25%) |  | 
CC(=O)Nc1ccn(C(=O)N2CC3CN(Cc4cc(N5CCCC5)cc(C(F)(F)F)c4)CC3C2)n1 (stereo not drawn) [Example 168, N-(1-(5-(3-(Pyrrolidin-1-yl)-5-(trifluoromethyl)benzyl)octahydropyrrolo[3,4-c]pyrrole-2-carbonyl)-1H-pyrazol-3-yl)acetamide] | > 75 | 50 to 75 | > 75 | > 75 | A (% inhibition is greater than or equal to 75%) | A (% inhibition is greater than or equal to 75%) |  | 
CC(=O)Nc1ccn(C(=O)N2CC3CN(Cc4ccc(N5CCCC5)cc4Cl)CC3C2)n1 (stereo not drawn) [Example 169, N-(1-(5-(2-Chloro-4-(pyrrolidin-1-yl)benzyl)octahydropyrrolo[3,4-c]pyrrole-2-carbonyl)-1H-pyrazol-3-yl)acetamide] | > 75 | 50 to 75 | > 75 | > 75 | B (% inhibition is greater than or equal to 50% and less than 75%) | B (% inhibition is greater than or equal to 50% and less than 75%) |  | 
